In patent US6528655B1, “Aromatic derivatives with HIV integrase inhibitory properties” (Pharmacor, Inc., priority 2000, dated 2003) one finds IC50 data, which are given here for 35 molecules.

SMILES strings stand for the structures. pIC50: −log10 of the molar value.

For one assay, the target named is HIV-1 integrase (Human immunodeficiency virus type 1 group M subtype B, UniProt P04585). The assay is described as follows: HIV-1 integrase inhibition assay (radiolabeled duplex substrate corresponding to the U5 end of the HIV LTR). The assay is classed as biochemical.
Conditions: not given
The procedure: For the purpose of Table 1 to 4, the HIV-1 integrase inhibition assay was carried out following a known procedure (Burke, Jr. T. R. et al., J. Med. Chem. 38, 4171-4178 (1995)). A suitable radiolabeled duplex substrate corresponding to the U5 end of the HIV LTR was used.
For the purposes of Table 1 to 4 the HIV-1 integrase inhibition assay was based on a known procedure (Hazuda, D. J. et al., Nucleic Acids Res. 22 1121-1122 (1994)).
`CC(C)(C)OC[C@H](NC(=O)c1cc(O)c2cccc(O)c2n1)C(=O)NCCc1ccc(O)c(O)c1` [Example 72, N-[Nα-(4,8-Dihydroxyquinoline-2-carbonyl)-O-tert-butyl-L-seryl]dopamine] showed a pIC50 of under 5.00.

Turning to `O=C(N[C@@H](Cc1ccc(O)cc1)C(=O)NNC(=O)c1ccccc1O)c1cc(O)c2cccc(O)c2n1` [Example 73, N1-[Nα-(4,8-Dihydroxyquinoline-2-carbonyl)-L-tyrosyl]-N2-(2-hydroxybenzoyl)-hydrazine], the pIC50 was 5.66.

On to `O=C(/C=C/c1ccc(O)c(O)c1)N[C@@H](Cc1ccc(O)cc1)C(=O)NNC(=O)c1ccccc1O` [Example 74, N1-(Nα-Caffeoyl-L-tyrosyl)-N2-(2-hydroxybenzoyl)-hydrazine], for which the pIC50 is 6.09. `O=C(/C=C/c1ccc(O)c(O)c1)N[C@@H](Cc1c[nH]c2ccccc12)C(=O)NNC(=O)c1ccccc1O` [Example 75, N1-(Nα-Caffeoyl-L-tryptophanyl)-N2-(2-hydroxybenzoyl)-hydrazine] showed a pIC50 of 5.92.

`O=C(/C=C/c1ccc(O)c(O)c1)N[C@@H](Cc1ccc(O)c(O)c1)C(=O)NNC(=O)c1ccccc1O` [Example 76, N1-(Nα-Caffeoyl-L-3,4-dihydroxyphenylalanyl)-N2-(2-hydroxybenzoyl)-hydrazine] gave a negative logarithm of the IC50 (pIC50) of 6.42. Turning to `O=C(N[C@@H](Cc1c[nH]c2ccccc12)C(=O)NNC(=O)c1ccccc1O)c1cc(O)c2cccc(O)c2n1` [Example 77, N1-[Nα-(4,8-Dihydroxyquinoline-2-carbonyl)-L-tryptophanyl]-N2-(2-hydroxybenzoyl)-hydrazine], the pIC50 was 5.33. Still for that read-out and setting: to `CC(C)(C)OC(=O)N[C@@H](Cc1cn(-c2ccc([N+](=O)[O-])cc2[N+](=O)[O-])cn1)C(=O)NNC(=O)c1ccccc1O` [Example 79, N1-[Nα-tert-Butoxycarbonyl-Nτ-(2,4-dinitrophenyl)-L-histidinyl]-N2-(2-hydroxybenzoyl)-hydrazine] belongs under 5.40.

Regarding `O=C(C=Cc1ccc(O)c(O)c1)NC(Cc1cn(-c2ccc([N+](=O)[O-])cc2[N+](=O)[O-])cn1)C(=O)NNC(=O)c1ccccc1O` [Example 80, N1-[Nα-Caffeoyl-Nτ-(2,4-dinitrophenyl)-L-histidinyl]-N2-(2-hydroxybenzoyl)-hydrazine], the pIC50 is 6.60. The same measure, in the same setting: the result for `O=C(C=Cc1ccsc1)NC(Cc1cn(-c2ccc([N+](=O)[O-])cc2[N+](=O)[O-])cn1)C(=O)NNC(=O)c1ccccc1O` [Example 81, N1-[Nα-(3-(3′-thiophenyl)acryloyl)-Nτ-(2,4-dinitrophenyl)-L-histidinyl]-N2-(2-hydroxybenzoyl)-hydrazine] reads under 5.00; that for `COc1ccc(OC)c(NC(=O)[C@H](CCC(=O)NC(c2ccccc2)(c2ccccc2)c2ccccc2)NC(=O)/C=C/c2ccc(O)c(O)c2)c1` [Example 82, N-(Nα-Caffeoyl-Nδ-trityl-L-glutaminyl)-2,5-dimethoxyaniline], 5.59. Same read-out and setting: to `COc1ccc(OC)c(NC(=O)[C@H](CCC(=O)NC(c2ccccc2)(c2ccccc2)c2ccccc2)NC(=O)c2ccc(O)c(O)c2)c1` [Example 83, N-[Nα-(3,4-Dihydroxybenzoyl)-Nδ-trityl-L-glutaminyl]-2,5-dimethoxyaniline] belongs 5.65.

For `COc1ccc(OC)c(NC(=O)[C@H](CCC(=O)NC(c2ccccc2)(c2ccccc2)c2ccccc2)NC(=O)c2cc3ccccc3[nH]2)c1` [Example 84, N-[Nα-(Indole-2-carbonyl)-Nδ-trityl-L-glutaminyl]-2,5-dimethoxyaniline], the pIC50 is 5.39. The molecule `COc1ccc(OC)c(NC(=O)[C@H](CCC(=O)NC(c2ccccc2)(c2ccccc2)c2ccccc2)NC(=O)c2cc(O)c3cccc(O)c3n2)c1` [Example 85, N-[Nα-(4,8-Dihydroxyquinoline-2-carbonyl)-Nδ-trityl-L-glutaminyl]-2,5-dimethoxyaniline] showed a pIC50 of 5.59.

`O=C(/C=C/c1c[nH]c2ccccc12)N[C@@H](Cc1cn(C(c2ccccc2)(c2ccccc2)c2ccccc2)cn1)C(=O)NCCc1ccc(O)c(O)c1` [Example 86, N-[Nα-(3-(3′-Indole)acryloyl)-Nτ-trityl-L-histidinyl]dopamine]: the pIC50 is 5.70. On to `CC(C)(C)OC[C@H](NC(=O)Cc1cccs1)C(=O)NCCc1ccc(O)c(O)c1` [Example 87], for which the pIC50 is under 5.00.

In turn, `COc1ccc(OC)c(NC(=O)[C@H](CCC(=O)NC(c2ccccc2)(c2ccccc2)c2ccccc2)NC(=O)c2ccc[nH]2)c1` [Example 88, N-[Nα-(Pyrrole-2-carbonyl)-Nδ-trityl-L-glutaminyl]-2,5-dimethoxyaniline] had a pIC50 of under 5.00. Still for that read-out and setting: to `Cc1ccc(C(NC(=O)CC[C@H](NC(=O)/C=C/c2ccc(O)c(O)c2)C(=O)Nc2nccs2)(c2ccccc2)c2ccccc2)cc1` [Example 90, N-(Nα-Caffeoyl-Nδ-methyltrityl-L-glutaminyl)thiazole-2-amine] belongs 6.08; to `COc1ccc(OC)c(NC(=O)[C@H](CCC(N)=O)NC(=O)c2ccc[nH]2)c1` [Example 91, N-(Nα-(Pyrrole-2-carbonyl)-L-glutaminyl]-2,5dimethoxyaniline], under 5.00. On the same count and under the same terms, the result for `O=C(O)CC[C@H](NC(=O)c1cc2ccccc2n1Cc1ccc(F)cc1)C(=O)NCc1ccccc1` [Example 94, N-[Nα-(N′-(4-Fluorobenzyl)indole-2-carbonyl)-L-glutamyl]benzylamine] reads 5.03; that for `CC(C)(C)OC[C@H](NC(=O)c1cc2ccccc2n1Cc1ccc(F)cc1)C(=O)NCCc1ccc(O)c(O)c1` [Example 95, N-[Nα-(N′-(4-Fluorobenzyl)indole-2-carbonyl)-O-tert-butyl-L-seryl]dopamine], 5.15.

Consider `O=C(N[C@@H](CO)C(=O)NCCc1ccc(O)c(O)c1)c1cc2ccccc2n1Cc1ccc(F)cc1` [Example 96, N-[Nα-(N′-(4-Fluorobenzyl)indole-2-carbonyl)-L-seryl]dopamine], for which the pIC50 is under 5.00. On the same count and under the same terms, the result for `CC(C)(C)OC[C@H](NC(=O)c1ccc(OCc2ccc(F)cc2)c(OCc2ccc(F)cc2)c1)C(=O)NCCc1ccc(O)c(O)c1` [Example 97, N-[Nα-(3,4-di-(4-Fluorobenzyloxy)benzoyl)-O-tert-butyl-L-seryl]dopamine] reads 5.54. `CC(C)(C)OC(=O)CC[C@H](NC(=O)c1ccc(OCc2ccc(F)cc2)c(OCc2ccc(F)cc2)c1)C(=O)NCc1ccccc1` [Example 99, N-[Nα-(3,4-di-(4-Fluorobenzyloxy)benzoyl)-Oδ-tert-butyl-L-glutamyl]benzylamine] gave a pIC50 of under 5.00. `CC(C)(C)OC(=O)CC[C@H](NC(=O)c1cccn1Cc1ccc(F)cc1)C(=O)NCCc1cccs1` [Example 101, N-[Nα-(N′-(4-Fluorobenzyl)pyrrole-2-carbonyl)-Oδ-tert-butyl-L-glutamyl]-2-(2′-thiophenyl)ethylamine] gave a pIC50 of under 5.00. The same measure, in the same setting: to `CC(C)(C)OC(=O)CC[C@H](NC(=O)c1cc2ccccc2n1Cc1ccc(F)cc1)C(=O)NCCc1cccs1` [Example 102, N-[Nα-(N′-(4-Fluorobenzyl)indole-2-carbonyl)-Oδ-tert-butyl-L-glutamyl]-2-(2′-thiophenyl)ethylamine] belongs under 5.00; to `O=C(O)CC[C@H](NC(=O)c1cccn1Cc1ccc(F)cc1)C(=O)NCCc1cccs1` [Example 103, N-[Nα-(N′-(4-Fluorobenzyl)pyrrole-2-carbonyl)-L-glutamyl]-2-(2′-thiophenyl)ethylamine], under 5.00; to `O=C(O)CC[C@H](NC(=O)c1cc2ccccc2n1Cc1ccc(F)cc1)C(=O)NCCc1cccs1` [Example 104, N-[Nα-(N′-(4-Fluorobenzyl)indole-2-carbonyl)-L-glutamyl]-2-(2′-thiophenyl)ethylamine], under 5.00. `CC(C)(C)OC(=O)CC[C@H](NC(=O)c1cc(O)c2cccc(O)c2n1)C(=O)NCCc1cccs1` [Example 105, N-[Nα-(4,8-Dihydroxyquinoline-2-carbonyl)-Oδ-tert-butyl-L-glutamyl]-2-(2′-thiophenyl)ethylamine] showed a pIC50 of under 5.00. Still for that read-out and setting: to `O=C(O)CC[C@H](NC(=O)c1cc(O)c2cccc(O)c2n1)C(=O)NCCc1cccs1` [Example 106, N-[Nα-(4,8-Dihydroxyquinoline-2-carbonyl)-L-glutamyl]-2-(2′-thiophenyl)ethylamine] belongs under 5.00; to `CC(C)(C)OC(=O)CC[C@H](NC(=O)c1cc(F)ccc1O)C(=O)NCCc1cccs1` [Example 107, N-[Nα-(5-Fluoro-2-hydroxybenzoyl)-Oδ-tert-butyl-L-glutamyl]-2-(2′-thiophenyl)ethylamine], under 5.00. For the molecule `O=C(O)CC[C@H](NC(=O)c1cc(F)ccc1O)C(=O)NCCc1cccs1` [Example 108, N-[Nα-(5-Fluoro-2-hydroxybenzoyl)-L-glutamyl]-2-(2′-thiophenyl)ethylamine], the negative-log IC50 (pIC50) is under 5.00.

Staying with this assay, now noted: Table 3, compounds of formula IV′; read-out: IC50.
In the case of `O=C(CC[C@H](NC(=O)c1cc(O)c2cccc(O)c2n1)C(=O)NNC(=O)c1ccccc1O)NNC(=O)c1ccccc1O` [Example 78, N1-[Nα-(4,8-Dihydroxyquinoline-2-carbonyl)-L-glutamyl]-N2/Nδ-di-(2-hydroxybenzoyl)-dihydrazine], the pIC50 was under 5.01.

The assay is the same for the next values; noted with them: Table 4, compounds of formula I′; read-out: IC50.
For the molecule `CC(C)(C)OC[C@H](NC(=O)c1cccn1Cc1ccc(F)cc1)C(=O)NCCc1ccc(O)c(O)c1` [Example 93, N-[Nα-(N′-(4-Fluorobenzyl)pyrrole-2-carbonyl)-O-tert-butyl-L-seryl]dopamine], the pIC50 is under 5.00. For the molecule `O=C(C=Cc1ccc(OCc2ccc(F)cc2)c(OCc2ccc(F)cc2)c1)NCC(=O)NCCc1cccs1` [Example 98, N-[Nα-(3,4-di-(4-Fluorobenzyloxy)caffeoyl)-glycyl]-2-(2′-thiophenyl)ethylamine], the negative-log IC50 (pIC50) was under 5.00.

For `O=C(C=Cc1ccc(OCc2ccc(F)cc2)c(OCc2ccc(F)cc2)c1)NCC(=O)NCCc1ccc(O)c(O)c1` [Example 100, N-[Nα-(3,4-di-(4-Fluorobenzyloxy)caffeoyl)-L-glycyl)dopamine], the pIC50 is 5.59.
